The first assay has as its system lung adenocarcinoma cell line HCC4006. The assay is described as follows: HCC4006 cell growth inhibition test (Test Example 2). In kind it is cell-based. The following applies: Homo sapiens, 120 h; 1 μM test compound; HCC4006 cells, culture for 5 days, CellTiter-Glo; read-out: Rate of inhibition (%) at 1 μM. As for the experimental part: A lung adenocarcinoma cell line HCC4006 (ATCC) was cultured using an RPMI-1640 medium (Wako Pure Chemical Industries, Ltd.) containing 10% fetal bovine serum and penicillin/streptomycin. 250 cells per well were inoculated into 40 μL of a medium in a 384-well culture plate. On the next day, 10 μL of each test compound was added to the cells. After culture for 5 days, the medium was discarded, and 30 μL of CellTiter-Glo Luminescent Cell Viability Assay solution (Promega Corp., Fitchburg, Wis., U.S.) was added to each well. Light emission signals were measured using EnVision (PerkinElmer, Inc., Waltham, Mass., U.S.).
The rate of inhibition (%) by the test compound was calculated according to the following expression: Rate of inhibition (%)=(1−(Count of the test compound−Blank)/(Control−Blank))×100
In the above expression, a count under compound non-addition conditions was indicated as a control, and a count under cell-free conditions was indicated as a blank.
In general, inhibition refers to the change of the read-out against control, counted positive when it falls. Take `COc1ccc(C(=O)N2CCC(NC(=O)c3ccccc3Cl)c3c2cnn3C)cc1OC` (stereo not drawn) [Example 2A, 2-Chloro-N-(4-(3,4-dimethoxybenzoyl)-1-methyl-4,5,6,7-tetrahydro-1H-pyrazolo[4,3-b]pyridin-7-yl)benzamide]: the inhibition at 1 µM was 36%. Turning to `COc1ccc(C(=O)N2CC[C@@H](NC(=O)c3ccccc3Cl)[C@H](c3ccccc3)C2)cc1OC` [Example 3B, 2-chloro-N-((3R,4R)-1-(3,4-dimethoxybenzoyl)-3-phenylpiperidin-4-yl)benzamide], the inhibition at 1 µM was found to be 44%.

On to `COc1ccc(C(=O)N2CC[C@@H](NC(=O)c3ccccc3Cl)[C@@H](c3ccccc3)C2)cc1OC` [Example 2B, 2-chloro-N-((3S,4R)-1-(3,4-dimethoxybenzoyl)-3-phenylpiperidin-4-yl)benzamide], for which the inhibition at 1 µM was found to be 55%.

Another assay deals with T1, SPT (SPT2-expressing membrane fraction: human SPT1, human SPT2 and human ssSPTa) (Homo sapiens, UniProt O15269+O15270).
T1 construct: Full-length human SPT1, human SPT2 and human ssSPTa used; made in house; host or cells: FreeStyle 293 cells (pcDNA3.1 vectors, cotransfection); crude membrane fraction used
T1 sequence (O15269 1-473): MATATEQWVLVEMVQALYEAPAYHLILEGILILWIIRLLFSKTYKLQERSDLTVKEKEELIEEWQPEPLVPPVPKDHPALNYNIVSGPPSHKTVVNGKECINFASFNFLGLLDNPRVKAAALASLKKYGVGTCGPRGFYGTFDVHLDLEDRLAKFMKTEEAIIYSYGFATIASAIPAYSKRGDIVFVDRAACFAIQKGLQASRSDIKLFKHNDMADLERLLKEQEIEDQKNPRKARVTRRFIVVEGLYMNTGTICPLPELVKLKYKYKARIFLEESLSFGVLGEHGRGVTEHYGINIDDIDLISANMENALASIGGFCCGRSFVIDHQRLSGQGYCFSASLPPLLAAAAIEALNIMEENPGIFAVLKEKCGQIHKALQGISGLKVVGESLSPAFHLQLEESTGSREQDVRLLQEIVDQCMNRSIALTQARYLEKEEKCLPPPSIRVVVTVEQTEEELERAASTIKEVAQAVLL
T1 sequence (O15270 1-562): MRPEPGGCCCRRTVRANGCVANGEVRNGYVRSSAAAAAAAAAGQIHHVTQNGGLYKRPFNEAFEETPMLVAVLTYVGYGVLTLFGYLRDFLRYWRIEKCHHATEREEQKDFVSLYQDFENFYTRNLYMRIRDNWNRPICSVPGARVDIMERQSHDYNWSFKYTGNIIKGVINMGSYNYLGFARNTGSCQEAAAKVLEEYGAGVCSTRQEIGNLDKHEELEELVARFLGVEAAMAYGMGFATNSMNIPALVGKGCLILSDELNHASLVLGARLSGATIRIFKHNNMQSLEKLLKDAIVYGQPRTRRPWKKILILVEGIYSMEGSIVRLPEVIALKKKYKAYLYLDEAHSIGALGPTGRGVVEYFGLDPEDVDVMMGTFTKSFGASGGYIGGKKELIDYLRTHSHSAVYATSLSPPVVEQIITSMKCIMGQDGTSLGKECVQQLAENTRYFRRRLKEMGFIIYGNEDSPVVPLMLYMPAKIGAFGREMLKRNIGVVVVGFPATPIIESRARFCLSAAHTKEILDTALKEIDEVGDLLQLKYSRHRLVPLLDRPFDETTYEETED
T1 sequence (Q969W0 1-71 partner): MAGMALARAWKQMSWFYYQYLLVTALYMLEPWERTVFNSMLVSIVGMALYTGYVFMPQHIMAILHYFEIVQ
Nature of the assay: SPT enzyme inhibition test (Test Example 1). In kind it is biochemical. The following applies: read-out: Rate of inhibition (%) at 1 μM. As for the experimental part:
After culture for 3 days, the cells were recovered and frozen at −80° C. to obtain expressing cells. The frozen cells were suspended in a 50 mM Hepes buffer (pH 7.5) containing 250 mM sucrose, 5 mM ethylenediaminetetraacetic acid (EDTA), 5 mM dithiothreitol (DTT) and Complete, EDTA-free (Roche Applied Science, Penzberg, Upper Bavaria, Germany). The cells were disrupted (on ice, 20,000 rpm, 20 sec×2) using POLYTORON (Central Scientific Commerce, Inc.). After centrifugation at 2000 rpm (850×g) for 10 minutes, the supernatant was recovered. Subsequently, the supernatant was centrifuged at 40,000 rpm (186,010×g) for 60 minutes, and the supernatant was discarded. The pellets were suspended in a 50 mM Hepes buffer (pH 7.5) containing 5 mM EDTA, 5 mM DTT and Complete, EDTA-free, passed through a 40-μm cell strainer and stored at −80° C. The resultant was used as a SPT2-expressing membrane fraction. The protein concentration was determined using CBB Protein Assay with bovine serum albumin used as standards.
5 μL of each test compound was mixed with 10 μL of the 100 μg/mL SPT2-expressing membrane fraction using an assay buffer (100 mM Hepes (pH 8.0) containing 2.5 mM EDTA, 5 mM DTT and 0.01% fatty acid-free bovine serum albumin), and the mixture was left standing at room temperature for 60 minutes. Subsequently, 5 μL of a substrate solution containing 2 mM L-serine and 20 μM palmitoyl CoA was added thereto, and an enzyme reaction was carried out in a 384-well plate using 20 μL in total of the reaction system. After reaction at room temperature for 15 minutes, the reaction was terminated by the addition of 20 μL of a 2% aqueous formic acid solution. Subsequently, 40 μL of acetonitrile containing 600 nM C17-sphinganine (Avanti Polar Lipids, Inc., Alabaster, Ala., U.S.) was added thereto as an internal standard. The reaction sample was subjected to on-line solid-layer extraction using RapidFire 300 (Agilent Technologies Inc., Santa Clara, Calif., U.S.). […] Mass chromatograms were obtained using Analyst software (version 1.5.0, AB SCIEX). Their mass chromatogram areas were respectively calculated, and the rate of inhibition (%) by the test compound was calculated using an area ratio (the value of the reaction product was divided by the value of the internal standard).
As to `COc1ccc(C(=O)N2CCC(NC(=O)c3cnccc3C(F)(F)F)c3c2cnn3C)cc1OC` (stereo not drawn) [Example 91A, N-(4-(3,4-dimethoxybenzoyl)-1-methyl-4,5,6,7-tetrahydro-1H-pyrazolo[4,3-b]pyridin-7-yl)-4-(trifluoromethyl)nicotinamide], the inhibition at 1 µM was 94%. The same measure, in the same setting: in the case of `COc1ccc(C(=O)N2CCC(NC(=O)c3ccccc3Cl)c3c(C)nsc32)cc1OC` (stereo not drawn) [Example 117A, 2-Chloro-N-(7-(3,4-dimethoxybenzoyl)-3-methyl-4,5,6,7-tetrahydro[1,2]thiazolo[5,4-b]pyridin-4-yl)benzamide] it was 84%. Same read-out and setting: in the case of `COc1ccc(C(=O)N2CCC(NC(=O)c3ccccc3Cl)c3nn(C)cc32)cc1OC` (stereo not drawn) [Example 1A, 2-Chloro-N-(4-(3,4-dimethoxybenzoyl)-2-methyl-4,5,6,7-tetrahydro-2H-pyrazolo[4,3-b]pyridin-7-yl)benzamide] it was 91%; in that of `COc1ccc(C(=O)N2CCC(NC(=O)c3ccccc3Cl)c3c(C)nn(C)c32)cc1OC` (stereo not drawn) [Example 172A, 2-Chloro-N-(7-(3,4-dimethoxybenzoyl)-1,3-dimethyl-4,5,6,7-tetrahydro-1H-pyrazolo[3,4-b]pyridin-4-yl)benzamide], 93%; in that of `COc1ccc(C(=O)N2CCC(NC(=O)c3cccnc3C(F)(F)F)c3c2cnn3C)cc1OC` (stereo not drawn) [Example 103A, N-(4-(3,4-dimethoxybenzoyl)-1-methyl-4,5,6,7-tetrahydro-1H-pyrazolo[4,3-b]pyridin-7-yl)-2-(trifluoromethyl)nicotinamide], 95%. Take `COc1cc(C(=O)N2CC[C@@H](NC(=O)c3ncccc3C(F)(F)F)[C@@H](c3ccccc3)C2)n(C)n1` [Example 72B, N-((3S,4R)-1-((3-methoxy-1-methyl-1H-pyrazol-5-yl)carbonyl)-3-phenylpiperidin-4-yl)-3-(trifluoromethyl)pyridine-2-carboxamide]: the inhibition at 1 µM worked out at 94%. Take `COc1cc(C(=O)N2CC[C@@H](NC(=O)c3ccccc3OC(F)(F)F)[C@H](n3cccn3)C2)cnc1OC` (relative stereo) [Example 276B, N-(trans-1-((5,6-dimethoxypyridin-3-yl)carbonyl)-3-(1H-pyrazol-1-yl)piperidin-4-yl)-2-(trifluoromethoxy)benzamide]: the inhibition at 1 µM is 82%. The same measure, in the same setting: in the case of `COc1ccc(C(=O)N2CCC(NC(=O)c3ccccc3Cl)c3nscc32)cc1OC` (stereo not drawn) [Example 30A, 2-Chloro-N-[4-(3,4-dimethoxybenzoyl)-4,5,6,7-tetrahydro[1,2]thiazolo[4,3-b]pyridin-7-yl]benzamide] it was 93%. For `COc1cc(C(=O)N2CC[C@@H](NC(=O)c3ccccc3OC(F)(F)F)[C@H](N3CCCCC3)C2)cnc1OC` (relative stereo) [Example 253B, N-(trans-1′-((5,6-Dimethoxypyridin-3-yl)carbonyl)-1,3′-bipiperidin-4′-yl)-2-(trifluoromethoxy)benzamide], the inhibition at 1 µM amounted to 97%.

`COc1ccc(C(=O)N2CCC(NC(=O)c3ccccc3Cl)c3noc(C)c32)cc1OC` (stereo not drawn) [Example 17A, 2-Chloro-N-[4-(3,4-dimethoxybenzoyl)-3-methyl-4,5,6,7-tetrahydro[1,2]oxazolo[4,3-b]pyridin-7-yl]benzamide]: the inhibition at 1 µM worked out at 84%. With `COc1ccc(C(=O)N2CC[C@@H](NC(=O)c3ccccc3Cl)[C@H](c3sccc3C)C2)cc1OC` (relative stereo) [Example 270B, 2-chloro-N-(trans-1-(3,4-dimethoxybenzoyl)-3-(3-methyl-2-thienyl)piperidin-4-yl)benzamide], the inhibition at 1 µM is 89%. Regarding `COc1ccc(C(=O)N2CC[C@@H](NC(=O)c3ccccc3OC(F)(F)F)[C@@H](N3CCCCC3)C2)cc1OC` (relative stereo) [Example 55B, N-(cis-1′-(3,4-Dimethoxybenzoyl)-1,3′-bipiperidin-4′-yl)-2-(trifluoromethoxy)benzamide], the inhibition at 1 µM is 95%. Take `COc1cc(C(=O)N2CC[C@@H](NC(=O)c3ccnn3C)[C@@H](c3ccccc3)C2)cnc1OC` [Example 144B, N-((3S,4R)-1-((5,6-dimethoxypyridin-3-yl)carbonyl)-3-phenylpiperidin-4-yl)-1-methyl-1H-pyrazole-5-carboxamide]: the inhibition at 1 µM is 98%.

Regarding `COc1ccc(C(=O)N2CCC(NC(=O)c3sccc3Cl)c3c2cnn3C)cc1OC` (stereo not drawn) [Example 64A, 3-chloro-N-(4-(3,4-dimethoxybenzoyl)-1-methyl-4,5,6,7-tetrahydro-1H-pyrazolo[4,3-b]pyridin-7-yl)thiophene-2-carboxamide], the inhibition at 1 µM stood at 82%. `COc1ccc(C(=O)N2CCC(NC(=O)c3ccccc3Cl)c3ccc(Cl)nc32)cc1OC` (stereo not drawn) [Example 217A, 2-Chloro-N-(7-chloro-1-(3,4-dimethoxybenzoyl)-1,2,3,4-tetrahydro-1,8-naphthyridin-4-yl)benzamide]: the inhibition at 1 µM worked out at 102%.
